Where no end group is shown, it is not given here. [ ]: non-standard residue; d: D form.

Data on five molecules can be found in patent US20260007730A1, “HUMAN CTLA-4 PEPTIDE VACCINES AND USES THEREOF” (Ohio State Innovation Foundation, priority 2022, published 2026).

Common to all, as to type: in vivo, BALB/c mice
One experiment concerns CT26 tumor cells. Briefly: CTLA-4 peptide mimics in CT26-BALB/c tumor model (V32). Particulars: CT26, 200 ug peptide mimic from day 1, Day 14. As to the method: 6-8 weeks old BALB/c mice were challenged with 1×10^5 per mouse CT26 tumor cells (FIG. 6A). After tumor challenge, the positive control group, we treat the mice with anti-mouse CTLA-4 antibody (clone 9H10) twice a week, start from day 1 post tumor challenge and the negative control group was treated with PBS. For the CTLA-4 peptide mimic treatment groups, mice were treated with 200 ug peptide mimics as indicated start from day 1 post tumor challenging. All the mice had been treated at day 1, day 2, day 5, day 7, day 9, day 12, day 14, and day 16 post tumor challenge. The immunogenicity (antibody titer) was under detectable. Tumor volume was calculated as: Tumor volume (LWW)=(Length×Width×Width)/2
Mice challenged with tumor cells were monitored at least twice per week and tumor sizes were measured by calipers. Formula: Volume (LWW)=(Length×Width×Width)/2 was used to calculate tumor volumes. […] Data statistical analysis was performed by GraphPad Prism 8.1.2 (GraphPad Software, Inc. San Diego, CA, USA) and the indicated statistical analysis. One-way analysis of variance (one-way ANOVA) and followed by the Tukey's multiple comparisons test were used to compare data in multiple groups or data between groups in multiple groups. And the two-way ANOVA was used to analysis the whole curves comparison. The Log-rank (Mantel-Cox) test was use to compare the survival curves. […]

The test system of the next experiment is CT26 colon carcinoma. The experiment is described as follows: CTLA-4 peptide vaccines in CT26-BALB/c tumor model. The method, then: 6-8 weeks old BALB/c mice were vaccinated with MVF-CTLA-4 (59), MVF-CTLA-4 (75), MVF-CTLA-4 (92) or MVF-CTLA-4 (130) for 3 weeks interval. 0.1 mg peptide cancer vaccine mixed with ISA 720 (1:1) used per mouse. Mice were boosted with the designed doses for every 3 weeks intervals. Blood was collected weekly for monitoring antibody titers.
After 2 weeks of the third time immunization (3Y), mice were challenged with 10^5 per mouse CT26 (FIG. 3A). After tumor challenge, the positive control group, we treat the mice with anti-mouse CTLA-4 antibody (clone 9H10) twice a week for up to three weeks, and the negative control group was treated with PBS. Tumor volume was calculated as: Tumor volume (LWW)=(Length×Width×Width)/2. Mean value of tumor growths in BALB/c mice were vaccinated with MVF-CTLA-4 (59), MVF-CTLA-4 (75), MVF-CTLA-4 (92) or MVF-CTLA-4 (130), PBS as negative control and anti-mouse CTLA-4 antibody (clone 9H10) as positive control. […] Individual mouse CT26 tumor growths in each group of mice were vaccinated with MVF-CTLA-4 (59), MVF-CTLA-4 (75), MVF-CTLA-4 (92) or MVF-CTLA-4 (130), PBS as negative control and anti-mouse CTLA-4 antibody (clone 9H10) as positive control (FIG. 3C).
(§1) Mice challenged with tumor cells were monitored at least twice per week and tumor sizes were measured by calipers. Formula: Volume (LWW)=(Length×Width×Width)/2 was used to calculate tumor volumes. […] Data statistical analysis was performed by GraphPad Prism 8.1.2 (GraphPad Software, Inc. San Diego, CA, USA) and the indicated statistical analysis. One-way analysis of variance (one-way ANOVA) and followed by the Tukey's multiple comparisons test were used to compare data in multiple groups or data between groups in multiple groups. And the two-way ANOVA was used to analysis the whole curves comparison. The Log-rank (Mantel-Cox) test was use to compare the survival curves. P value or adjusted p value less than 0.05 was accepted as statistically significant different.

A further experiment deals with 4T1 breast cancer cells. The experiment is described as follows: CTLA-4 peptide vaccines in 4T1-BALB/c tumor model. Particulars: for survival versus PBS group (Log-rank test): 4T1. As to the method: 6-8 weeks old BALB/c mice were vaccinated with MVF-CTLA-4 (59), MVF-CTLA-4 (75), MVF-CTLA-4 (92) or MVF-CTLA-4 (130) for 3 weeks interval. 0.1 mg peptide cancer vaccine mixed with ISA 720 (1:1) used per mouse. Mice were boosted with the designed doses for every 3 weeks intervals. Blood was collected weekly for monitoring antibody titers. After 2 weeks of the third time immunization (3Y), mice were challenged with 10^5 per mouse 4T1 (FIG. 4A). After tumor challenge, the positive control group, we treat the mice with anti-mouse CTLA-4 antibody (clone 9H10) twice a week for up to three weeks, and the negative control group was treated with PBS. Tumor volume was calculated as: Tumor volume (LWW)=(Length×Width×Width)/2
as §1

A further experiment has as its system D2F2 mammary tumor cells. Briefly: CTLA-4 peptide vaccines in D2F2-BALB/c tumor model. Particulars: for survival versus PBS group (Log-rank test): D2F2. The method, then: 6-8 weeks old BALB/c mice were vaccinated with MVF-CTLA-4 (59), MVF-CTLA-4 (75), MVF-CTLA-4 (92) or MVF-CTLA-4 (130) for 3 weeks interval. 0.1 mg peptide cancer vaccine mixed with ISA 720 (1:1) used per mouse (FIG. 5A). Mice were boosted with the designed doses for every 3 weeks intervals. Blood was collected weekly for monitoring antibody titers. After 2 weeks of the third time immunization (3Y), mice were challenged with 2×10^5 per mouse D2F2 mammary tumor cells.
After tumor challenge, the positive control group, we treat the mice with anti-mouse CTLA-4 antibody (clone 9H10) twice a week for up to three weeks, and the negative control group was treated with PBS. Tumor volume was calculated as: Tumor volume (LWW)=(Length×Width×Width)/2.
as §1

“H2N-YIQTGNGIGLYYPPPYMLEVK-CONH2 (H-[dY][dI][dQ][dT]G[dN]G[dI]G[dL][dY][dY][dP][dP][dP][dY][dM][dL][dE][dV][dK]-NH2; also: retro-inverso) [CTLA-4 (9) RIL (150-130)]”: the “tumor volume, between groups comparison vs PBS (p or words)” value with CT26 tumor cells was under 0.05.

Regarding “KLLSLIKGVIVHRLEGVE-GPSL-KVELMYPPPYYLGIGNGTQIY-CONH2 (KLLSLIKGVIVHRLEGVEGPSLKVELMYPPPYYLGIGNGTQIY-NH2; not fully specified; printed as KLLSLIKGVIVHRLEGVE-GPSL-KVELMYPPPYYLGIGNGTQIY-CONH2) [MVF-CTLA-4 (130)]”, the “tumor volume LWW versus PBS group” value in the experiment with CT26 colon carcinoma (CT26, day 14) is listed as “significant smaller tumor size”; in the experiment with CT26 colon carcinoma (CT26, day 14, listed as CTLA-4 (130)), “significantly smaller tumor size”; in the experiment on CT26 colon carcinoma (CT26, day 16), “significant smaller tumor size”; in the experiment with CT26 colon carcinoma (CT26, day 16, listed as CTLA-4 (130)), “significantly smaller tumor size”; in the experiment on 4T1 breast cancer cells (4T1, day 14) it was “significant smaller tumor size”; in the experiment on 4T1 breast cancer cells (4T1, day 14, listed as CTLA-4 (130)), “significantly smaller tumor size”. Also, the “tumor volume LWW versus PBS group” value is given as “significantly smaller tumor size” with D2F2 mammary tumor cells (D2F2, day 14); “significantly smaller tumor size” with D2F2 mammary tumor cells (D2F2, day 16); “significantly smaller tumor size” with D2F2 mammary tumor cells (D2F2, day 19); “significantly smaller tumor size” in the experiment on D2F2 mammary tumor cells (D2F2, day 21). Also, in the experiment on D2F2 mammary tumor cells, the “survival versus PBS group (Log-rank test)” value was “significant different longer survival”.

As for “KLLSLIKGVIVHRLEGVEGPSLEYASPGKATEVRVTVLRQA-CONH2 (KLLSLIKGVIVHRLEGVEGPSLEYASPGKATEVRVTVLRQA-NH2; not fully specified; printed as KLLSLIKGVIVHRLEGVEGPSLEYASPGKATEVRVTVLRQA-CONH2) [MVF-CTLA-4 (59)]”, the “tumor volume LWW versus PBS group” value in the experiment with CT26 colon carcinoma (CT26, day 14) is recorded as “significant smaller tumor size”; with CT26 colon carcinoma (CT26, day 14, listed as CTLA-4 (59)), “significantly smaller tumor size”; in the experiment with CT26 colon carcinoma (CT26, day 16), “significant smaller tumor size”; with CT26 colon carcinoma (CT26, day 16, listed as CTLA-4 (59)), “significantly smaller tumor size”; in the experiment on 4T1 breast cancer cells (4T1, day 14), “significant smaller tumor size”; in the experiment on 4T1 breast cancer cells (4T1, day 14, listed as CTLA-4 (59)) it was “significantly smaller tumor size”. In addition, the “tumor volume LWW versus PBS group” value is listed as “significant smaller tumor size” in the experiment with 4T1 breast cancer cells (4T1, day 16); “significantly smaller tumor size” in the experiment with 4T1 breast cancer cells (4T1, day 16, listed as CTLA-4 (59)); “significantly smaller tumor size” in the experiment on D2F2 mammary tumor cells (D2F2, day 14); “significantly smaller tumor size” with D2F2 mammary tumor cells (D2F2, day 16); “significantly smaller tumor size” in the experiment on D2F2 mammary tumor cells (D2F2, day 19); “significantly smaller tumor size” in the experiment with D2F2 mammary tumor cells (D2F2, day 21). In addition, the “survival versus PBS group (Log-rank test)” value is “significant longer survival” in the experiment on 4T1 breast cancer cells and “significant different longer survival” in the experiment on D2F2 mammary tumor cells.

As to “KLLSLIKGVIVHRLEGVEGPSLRQADSQVTEVCAATYMMG-CONH2 (KLLSLIKGVIVHRLEGVEGPSLRQADSQVTEVCAATYMMG-NH2; not fully specified; printed as KLLSLIKGVIVHRLEGVEGPSLRQADSQVTEVCAATYMMG-CONH2) [MVF-CTLA-4 (75)]”, in the experiment on 4T1 breast cancer cells, the “survival versus PBS group (Log-rank test)” value was “significant longer survival”. Further, the “tumor volume LWW versus PBS group” value in the experiment with 4T1 breast cancer cells (4T1, day 14) is “significant smaller tumor size”; with 4T1 breast cancer cells (4T1, day 14, listed as CTLA-4 (75)) it was “significantly smaller tumor size”; in the experiment on 4T1 breast cancer cells (4T1, day 16), “significant smaller tumor size”; in the experiment with 4T1 breast cancer cells (4T1, day 16, listed as CTLA-4 (75)), “significantly smaller tumor size”; with D2F2 mammary tumor cells (D2F2, day 14) it was “significantly smaller tumor size”; with D2F2 mammary tumor cells (D2F2, day 16), “significantly smaller tumor size”. For the same molecule, the “tumor volume LWW versus PBS group” value is “significantly smaller tumor size” in the experiment on D2F2 mammary tumor cells (D2F2, day 19) and “significantly smaller tumor size” with D2F2 mammary tumor cells (D2F2, day 21).

B1: KLLSLIKGVIVHRLEGVEGPSLGNELTFLDDSICTGTSSGNQVNFHMSVVRARRNDSGTYL-CONH2 (peptide)
chain: KLLSLIKGVIVHRLEGVEGPSLGNELTFLDDSICTGTSSGNQVNFHMSVVRARRNDSGTYL-NH2
modifications: not fully specified; printed as KLLSLIKGVIVHRLEGVEGPSLGNELTFLDDSICTGTSSGNQVNFHMSVVRARRNDSGTYL-CONH2
Regarding B1, the “tumor volume LWW versus PBS group” value in the experiment on CT26 colon carcinoma (CT26, day 14) is “significant smaller tumor size”; in the experiment with CT26 colon carcinoma (CT26, day 14, listed as CTLA-4 (92)) it was “significantly smaller tumor size”; in the experiment on CT26 colon carcinoma (CT26, day 16), “significant smaller tumor size”; with CT26 colon carcinoma (CT26, day 16, listed as CTLA-4 (92)), “significantly smaller tumor size”; with 4T1 breast cancer cells (4T1, day 16) it was “significant smaller tumor size”; in the experiment on 4T1 breast cancer cells (4T1, day 16, listed as CTLA-4 (92)), “significantly smaller tumor size”. Further, the “tumor volume LWW versus PBS group” value with D2F2 mammary tumor cells (D2F2, day 14) was “without difference”; in the experiment with D2F2 mammary tumor cells (D2F2, day 16), “significantly smaller tumor size”; in the experiment with D2F2 mammary tumor cells (D2F2, day 19), “significantly smaller tumor size”; with D2F2 mammary tumor cells (D2F2, day 21), “significantly smaller tumor size”.
